Measured values from patent US7812008B2, “9-substituted tetracyclines” (Wyeth LLC, priority 2005, dated 2010).
Converted amounts (≈) assume the structure as drawn. Like-named read-outs stand apart in the source and are kept apart here.

Legend:
E. coli GC2270 (tet(M)) = experiment: MIC broth microdilution, E. coli GC2270 (tet(M)); assay type: cell-based; details: MHBII, 18-22 hours at 35° C.
Experimental: (§1) Methods for in Vitro Antibacterial Evaluation
(§2) The minimum inhibitory concentration (MIC)
(§3) Antimicrobial susceptibility testing. The in vitro activities of representative examples of antibiotics of the invention are determined by the broth microdilution method as recommended by the National Committee for Clinical Laboratory Standards (NCCLS) (1). Mueller-Hinton II broth (MHBII)(BBL Cockeysville, Md.) is the medium employed in the testing procedures. Microtiter plates containing serial dilutions of each antimicrobial agent are inoculated with each organism to yield the appropriate density (10^5 CFU/ml) in a 100 μl final volume. The plates are incubated for 18-22 hours at 35° C. in ambient air. […] NCCLS. 2000. Methods for Dilution Antimicrobial Susceptibility Tests for Bacteria That Grow Aerobically; Approved Standards: M7-A5, vol. 20. National Committe for Clinical Laboratory Standards, Wayne, Pa.

[1] = system: E. coli GC4559 (parent GC4560); experiment: MIC broth microdilution, E. coli GC4559 (parent GC4560); assay type: cell-based; details: MHBII, 18-22 hours at 35° C.
Experimental: as §1, §2, §3

E. coli GC1073 (tet(B)) = experiment: MIC broth microdilution, E. coli GC1073 (tet(B)); assay type: cell-based; details: MHBII, 18-22 hours at 35° C.
Experimental: as §1, §2, §3

[2] = system: S. aureus GC6466 (tet(M)); experiment: MIC broth microdilution, S. aureus GC6466 (tet(M)); assay type: cell-based; details: MHBII, 18-22 hours at 35° C.
Experimental: as §1, §2, §3

[3] = system: E. faecalis GC4555 (ATCC Control); experiment: MIC broth microdilution, E. faecalis GC4555 (ATCC Control); assay type: cell-based; details: MHBII, 18-22 hours at 35° C.
Experimental: as §1, §2, §3

[4] = system: E. faecalis GC2267 (tet(L) + (M) + (S)); experiment: MIC broth microdilution, E. faecalis GC2267 (tet(L) + (M) + (S)); assay type: cell-based; details: MHBII, 18-22 hours at 35° C.
Experimental: as §1, §2, §3

[5] = system: S. pneumoniae* GC1894 (Clinical); experiment: MIC broth microdilution, S. pneumoniae GC1894 (Clinical); assay type: cell-based; details: 18-22 hours at 35° C.
Experimental: as §1, §2, §3

[6] = system: S. pyogenes* GC4563 (Clinical); experiment: MIC broth microdilution, S. pyogenes GC4563 (Clinical); assay type: cell-based; details: 18-22 hours at 35° C.
Experimental: as §1, §2, §3

[7] = system: M. catarrhalis* GC6907 (Clinical); experiment: MIC broth microdilution, M. catarrhalis GC6907 (Clinical); assay type: cell-based; details: 18-22 hours at 35° C.
Experimental: as §1, §2, §3

[8] = system: C. albicans GC3066 ATCC (Control); experiment: MIC broth microdilution, C. albicans GC3066 ATCC (Control); assay type: cell-based; details: 18-22 hours at 35° C.
Experimental: as §1, §2, §3

[9] = system: Staphylococcal aureus Smith M P; experiment: In vivo antibacterial evaluation, acute lethal infection in mice; details: Mus musculus; single oral dose 30 minutes after intraperitoneal challenge; female CD-1 mice; 7 day survival ratios, 3 tests pooled; read-out: SOD* ED50
Experimental: In Vivo Antibacterial Evaluation: The therapeutic effects of representative examples of the invention are determined against acute lethal infection with Staphylococcal aureus Smith M P, Female mice, strain CD-1 (Charles River Laboratoties), ca. 20 grams, are challenged by an intraperitoneal injection of sufficient bacteria (suspended in broth or hog mucin) to kill non-treated controls within 24-28 hours. Antibacterial agents, contained in 0.5 ml of 0.2% aqueous agar, are administered subcutaneously or orally 30 minutes after injection. When an oral dosing schedule is used, animal are deprived of food for 5 hours before and 2 hours after injection. Five mice are treated at each dose level. The 7 day survival ratios from 3 separate tests are pooled for calculation of median effective dose (ED50).

[10] = system: Staphylococcal aureus Smith M P; experiment: MIC reported in Table 2 beside the in vivo ED50; assay type: cell-based; details: Staphylococcus aureus, infecting strain S. aureus Smith MP
Experimental: Antimicrobial susceptibility testing. The in vitro activities of representative examples of antibiotics of the invention are determined by the broth microdilution method as recommended by the National Committee for Clinical Laboratory Standards (NCCLS) (1). Mueller-Hinton II broth (MHBII)(BBL Cockeysville, Md.) is the medium employed in the testing procedures. Microtiter plates containing serial dilutions of each antimicrobial agent are inoculated with each organism to yield the appropriate density (10^5 CFU/ml) in a 100 μl final volume. The plates are incubated for 18-22 hours at 35° C. in ambient air. […] NCCLS. 2000. Methods for Dilution Antimicrobial Susceptibility Tests for Bacteria That Grow Aerobically; Approved Standards: M7-A5, vol. 20. National Committe for Clinical Laboratory Standards, Wayne, Pa. In Vivo Antibacterial Evaluation: The therapeutic effects of representative examples of the invention are determined against acute lethal infection with Staphylococcal aureus Smith M P, Female mice, strain CD-1 (Charles River Laboratoties), ca. 20 grams, are challenged by an intraperitoneal injection of sufficient bacteria (suspended in broth or hog mucin) to kill non-treated controls within 24-28 hours. Antibacterial agents, contained in 0.5 ml of 0.2% aqueous agar, are administered subcutaneously or orally 30 minutes after injection. When an oral dosing schedule is used, animal are deprived of food for 5 hours before and 2 hours after injection. Five mice are treated at each dose level. The 7 day survival ratios from 3 separate tests are pooled for calculation of median effective dose (ED50).

[11] = system: Staphylococcal aureus Smith M P; experiment: In vivo antibacterial evaluation, acute lethal infection in mice; details: Mus musculus, iv, 168 h; single intraveneous dose; female CD-1 mice; 7 day survival ratios, 3 tests pooled; read-out: SIV* ED50
[12] = system: E. coli GC4560 (IMP mutant); experiment: MIC broth microdilution, E. coli GC4560 (IMP mutant); assay type: cell-based; details: MHBII, 18-22 hours at 35° C.
Experimental: as §1, §2, §3

[13] = system: E. coli GC2203 (ATCC Control); experiment: MIC broth microdilution, E. coli GC2203 (ATCC Control); assay type: cell-based; details: MHBII, 18-22 hours at 35° C.
Experimental: as §1, §2, §3

[14] = system: S. aureus GC1131 (Clinical); experiment: MIC broth microdilution, S. aureus GC1131 (Clinical); assay type: cell-based; details: MHBII, 18-22 hours at 35° C.
Experimental: as §1, §2, §3

[15] = system: S. aureus GC6467 (tet(M) + (K)); experiment: MIC broth microdilution, S. aureus GC6467 (tet(M) + (K)); assay type: cell-based; details: MHBII, 18-22 hours at 35° C.
Experimental: as §1, §2, §3

[16] = system: S. aureus GC1079 (tet(K)); experiment: MIC broth microdilution, S. aureus GC1079 (tet(K)); assay type: cell-based; details: MHBII, 18-22 hours at 35° C.
Experimental: as §1, §2, §3

[17] = system: S. aureus GC4536 (Smith MP -In Vivo); experiment: MIC broth microdilution, S. aureus GC4536 (Smith MP -In Vivo); assay type: cell-based; details: MHBII, 18-22 hours at 35° C.
Experimental: as §1, §2, §3

[18] = system: S. aureus GC2216 (ATCC Control); experiment: MIC broth microdilution, S. aureus GC2216 (ATCC Control); assay type: cell-based; details: MHBII, 18-22 hours at 35° C.
Experimental: as §1, §2, §3

[19] = system: E. faecalis GC2242 (Van-resistant); experiment: MIC broth microdilution, E. faecalis GC2242 (Van-resistant); assay type: cell-based; details: MHBII, 18-22 hours at 35° C.
Experimental: as §1, §2, §3

[20] = system: S. pneumoniae* GC4465 (Clinical); experiment: MIC broth microdilution, S. pneumoniae GC4465 (Clinical); assay type: cell-based; details: 18-22 hours at 35° C.
Experimental: as §1, §2, §3

[21] = system: H. influenzae<> GC6896 (ATCC Control); experiment: MIC broth microdilution, H. influenzae GC6896 (ATCC Control); assay type: cell-based; details: 18-22 hours at 35° C.
Experimental: as §1, §2, §3

| SMILES | minimum inhibitory concentration (MIC) (E. coli GC2270 (tet(M))) | minimum inhibitory concentration (MIC) [1] | minimum inhibitory concentration (MIC) (E. coli GC1073 (tet(B))) | minimum inhibitory concentration (MIC) [2] | minimum inhibitory concentration (MIC) [3] | minimum inhibitory concentration (MIC) [4] | minimum inhibitory concentration (MIC) [5] | minimum inhibitory concentration (MIC) [6] | minimum inhibitory concentration (MIC) [7] | minimum inhibitory concentration (MIC) [8] | ED50 [9] [mg/kg] | MIC [10] [µg/mL] | ED50 [11] [mg/kg] | minimum inhibitory concentration (MIC) [12] | minimum inhibitory concentration (MIC) [13] | minimum inhibitory concentration (MIC) [14] | minimum inhibitory concentration (MIC) [15] | minimum inhibitory concentration (MIC) [16] | minimum inhibitory concentration (MIC) [17] | minimum inhibitory concentration (MIC) [18] | also measured |
| --- | --- | --- | --- | --- | --- | --- | --- | --- | --- | --- | --- | --- | --- | --- | --- | --- | --- | --- | --- | --- | --- |
| CN(C)c1ccc(O)c2c1C[C@H]1C[C@H]3[C@H](N(C)C)C(O)=C(C(N)=O)C(=O)[C@@]3(O)C(O)=C1C2=O [Minocycline, 7-(dimethylamino)-6-demethyl-6-deoxytetracycline, reference compound] | 64 | 2 | 16 | 8 | 4 | 16 | 4 | <0.06 | <0.06 | >64 | 0.6 to 0.93 | 0.25 (≈ 0.546 µM) | 0.37 to 0.42 | – | – | – | – | – | – | – | – |
| CN(C)c1cc(NC(=O)CN(O)C(C)(C)C)c(O)c2c1C[C@H]1C[C@H]3[C@H](N(C)C)C(O)=C(C(N)=O)C(=O)[C@@]3(O)C(O)=C1C2=O [Example 3, (4S,4aS,5aR,12aS)-9-{[N-(tert-butyl)-N-hydroxyglycyl]amino}-4,7-bis(dimethylamino)-3,10,12,12a-tetrahydroxy-1,11-dioxo-1,4,4a,5,5a,6,11,12a-octahydrotetracene-2-carboxamide] | >64 | >64 | >64 | 4 | 4 | 8 | 1 | 0.50 | 2 | >64 | > 32 | 1 (≈ 1.66 µM) | 2 to 4 | 1 | 32 | 4 | 16 | 8 | 4 | 4 | minimum inhibitory concentration (MIC) [19]: 8; minimum inhibitory concentration (MIC) [20]: 1; minimum inhibitory concentration (MIC) [21]: 8 |
| CN(C)[C@@H]1C(O)=C(C(N)=O)C(=O)[C@@]2(O)C(O)=C3C(=O)c4c(O)c(NC(=O)CN5CCCCO5)cc(-c5cccs5)c4C[C@H]3C[C@@H]12 [Example 10, (4S,4aS,5aR,12aS)-4-(dimethylamino)-3,10,12,12a-tetrahydroxy-9-[(1,2-oxazinan-2-ylacetyl)amino]-1,11-dioxo-7-thien-2-yl-1,4,4a,5,5a,6,11,12a-octahydrotetracene-2-carboxamide] | >64 | >64 | >64 | 2 | 8 | 4 | 2 | 2 | 2 | >64 | – | – | – | 4 | >64 | 4 | 8 | 4 | 4 | 4 | minimum inhibitory concentration (MIC) [19]: 4; minimum inhibitory concentration (MIC) [20]: 2; minimum inhibitory concentration (MIC) [21]: >64 |
